Several values for one entry are separate records, joined by “and”; a condition that tells them apart may be missing. Equal values may be shown once.
Experiments:
C. carboxidivorans = assay: Product profiles of C. carboxidivorans cultures by GC-MSD; format: cell-based; conditions: 500 and 1000 ppm; 54 hour cultures
Description: Product profiles were determined on the C. carboxidivorans cultures that grew in the presence of compound A. A GC-MSD was performed on 54 hour cultures and product distributions were calculated based on the resultant areas of the output (See FIG. 2). In cultures with no compound A addition, the distribution of C2, C4 and C6 acids and alcohols was similar in both samples. As the compound A concentration increased the amount of C2, particularly the alcohols, increased. […] Thus, such crotonate derivatives can effectively limit the amount of butyl impurity accumulation in the fermentation zone from heteroacetogens which can compete effectively in syngas cultures with homoacetogenic bacteria.

[1] = test system: Clostridium tyrobutyricum; assay: Butyric acid by gas chromatography in Clostridium tyrobutyricum batch fermentations; format: cell-based; conditions: 5 mM, duplicates A and B
Description: The concentration of butyric acid is determined by gas chromatography for several of the above samples at the stated points in time. The butyrate production is calculated based upon peak area calculations generated by the gas chromatograph. At 11 hours, the concentration of butyric acid for each of the controls is about 0.95 gram per liter, and the concentration of butyric acid for the samples containing 500 ppm of the inhibitor are about 0.6 gram per liter.
The concentration of butyric acid is determined by gas chromatography using the procedure set forth in Example 13. The control is reported only in Table 18.

## CCOC(=O)C=C(C(F)(F)F)C(F)(F)F [Compound A, ethyl 4,4,4-trifluoro-3-(trifluoromethyl)crotonate]
C. carboxidivorans
  Product distribution of C2, C4 and C6 acids and alcohols: virtually all the product observed was the C2 alcohol
[1]; 4.5 Hours
  Butyrate Production: 0.04 grams per liter
[1]; 6 Hours
  Butyrate Production: 0.06 grams per liter and 0.05 grams per liter
[1]; 24 Hours
  Butyrate Production: 0.10 grams per liter and 0.08 grams per liter

Source: patent US20130071897A1, “METHOD FOR CONTROLLING UNDESIRABLE BYPRODUCTS FORMATION CAUSED BY CONTAMINATING ORGANISMS IN THE PRODUCTION OF ETHANOL FROM SYNGAS” (COSKATA, INC., priority 2011, published 2013)
